The test has as its target T1, human TLR7 (Homo sapiens, UniProt Q9NYK1).
T1 sequence (Q9NYK1 27-1049): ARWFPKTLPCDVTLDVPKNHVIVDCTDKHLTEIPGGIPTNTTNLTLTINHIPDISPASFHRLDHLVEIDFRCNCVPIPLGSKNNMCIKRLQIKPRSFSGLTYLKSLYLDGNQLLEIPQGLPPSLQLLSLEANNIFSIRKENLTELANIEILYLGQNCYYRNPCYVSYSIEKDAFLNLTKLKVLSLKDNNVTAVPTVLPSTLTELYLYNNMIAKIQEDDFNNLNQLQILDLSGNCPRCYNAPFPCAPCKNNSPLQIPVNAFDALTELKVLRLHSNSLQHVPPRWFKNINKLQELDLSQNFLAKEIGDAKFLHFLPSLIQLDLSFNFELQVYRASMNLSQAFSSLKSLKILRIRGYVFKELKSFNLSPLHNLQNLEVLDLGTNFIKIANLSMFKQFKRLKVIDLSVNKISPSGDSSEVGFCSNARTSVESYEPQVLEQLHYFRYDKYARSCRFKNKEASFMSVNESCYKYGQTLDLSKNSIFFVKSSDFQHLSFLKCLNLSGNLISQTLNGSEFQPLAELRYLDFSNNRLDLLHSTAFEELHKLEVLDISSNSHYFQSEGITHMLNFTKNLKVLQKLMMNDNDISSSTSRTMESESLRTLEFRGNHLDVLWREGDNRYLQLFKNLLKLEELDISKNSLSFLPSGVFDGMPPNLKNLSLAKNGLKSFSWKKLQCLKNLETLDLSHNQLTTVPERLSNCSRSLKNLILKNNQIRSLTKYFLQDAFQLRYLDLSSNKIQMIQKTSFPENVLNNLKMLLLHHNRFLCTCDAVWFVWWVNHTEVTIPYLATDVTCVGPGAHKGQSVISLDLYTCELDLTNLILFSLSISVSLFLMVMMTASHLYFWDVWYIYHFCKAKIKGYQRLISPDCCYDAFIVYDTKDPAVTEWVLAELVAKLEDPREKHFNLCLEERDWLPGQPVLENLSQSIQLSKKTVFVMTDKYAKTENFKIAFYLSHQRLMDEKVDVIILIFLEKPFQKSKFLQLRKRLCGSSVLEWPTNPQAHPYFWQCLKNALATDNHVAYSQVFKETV
Briefly: HEK293-Blue-hTLR-7 cells assay (SEAP reporter, R848 stimulation). The format is cell-based. The following applies: HEK293-Blue-hTLR7 cells, R848 ligand, 20 hrs incubation. How it is done: The following tests were carried out in order to determine the activity of the compounds of formula (I) in HEK293-Blue-hTLR-7/8/9 cells assay.
HEK293-Blue-hTLR-7 Cells Assay:
A stable HEK293-Blue-hTLR-7 cell line was purchased from InvivoGen (Cat. #: hkb-htlr7, San Diego, Calif., USA). These cells were originally designed for studying the stimulation of human TLR7 by monitoring the activation of NF-κB. A SEAP (secreted embryonic alkaline phosphatase) reporter gene was placed under the control of the IFN-β minimal promoter fused to five NF-κB and AP-1-binding sites. The SEAP was induced by activating NF-κB and AP-1 via stimulating HEK-Blue hTLR7 cells with TLR7 ligands. Therefore the reporter expression was declined by TLR7 antagonist under the stimulation of a ligand, such as R848 (Resiquimod), for incubation of 20 hrs. The cell culture supernatant SEAP reporter activity was determined using QUANTI-Blue™ kit (Cat. #: rep-qb1, Invivogen, San Diego, Ca, USA) at a wavelength of 640 nm, a detection medium that turns purple or blue in the presence of alkaline phosphatase.
HEK293-Blue-hTLR7 cells were incubated at a density of 250,000-450,000 cells/mL in a volume of 170 μL in a 96-well plate in Dulbecco's Modified Eagle's medium (DMEM) containing 4.5 g/L glucose, 50 U/mL penicillin, […], […], 2 mM L-glutamine, 10% (v/v) heat-inactivated fetal bovine serum with addition of 20 μL test compound in a serial dilution in the presence of final DMSO at 1% and 10 μL of 20 uM R848 in above DMEM, perform incubation under 37° C. in a CO2 incubator for 20 hrs. Then 20 μL of the supernatant from each well was incubated with 180 μL Quanti-blue substrate solution at 37° C. for 2 hrs and the absorbance was read at 620-655 nm using a spectrophotometer. The signalling pathway that TLR7 activation leads to downstream NF-κB activation has been widely accepted, and therefore similar reporter assay was modified for evaluating TLR7 antagonist.
Molecule `N#Cc1ccc(N2C[C@H](CN3CCC4(CCNC4)CC3)[C@@H](C(F)(F)F)C2)c2nccnc12` [Example 14, 8-[(3S,4R)-3-(2,8-Diazaspiro[4.5]decan-8-ylmethyl)-4-(trifluoromethyl)pyrrolidin-1-yl]quinoxaline-5-carbonitrile] had a half-maximal inhibitory concentration (IC50) of 43 nM. This counts as double-digit nanomolar. `N#Cc1ccc(N2CC(CN3CCC4(CCNCC4)CC3)C3(CC3)C2)c2nccnc12` (stereo not drawn) [Example 16, 8-[7-(3,9-Diazaspiro[5.5]undecan-3-ylmethyl)-5-azaspiro[2.4]heptan-5-yl]quinoxaline-5-carbonitrile]: the IC50 worked out at 113 nM.

Regarding `C[C@H]1CN(c2ccc(C#N)c3nccnc23)C[C@@H]1CN1CCC2(CCNCC2)CC1` [Example 17, 8-[(3S,4R)-3-(3,9-diazaspiro[5.5]undecan-3-ylmethyl)-4-methyl-pyrrolidin-1-yl]quinoxaline-5-carbonitrile], the half-inhibitory concentration (IC50) is 128 nM. Molecule `N#Cc1ccc(N2CC(CN3C[C@H]4CNC[C@H]4C3)C3(CC3)C2)c2nccnc12` (stereo partly drawn) [Example 18, 8-[7-[[(3aR,6aS)-2,3,3a,4,6,6a-hexahydro-H-pyrrolo[3,4-c]pyrrol-5-yl]methyl]-5-azaspiro[2.4]heptan-5-yl]quinoxaline-5-carbonitrile] came in with an IC50 of 137 nM. Next, `FC(F)(F)c1ccc(N2CC(CN3CCNCC3)C3(CC3)C2)c2nccnc12` (stereo not drawn) [Example 20, 5-[7-(Piperazin-1-ylmethyl)-5-azaspiro[2.4]heptan-5-yl]-8-(trifluoromethyl)quinoxaline]: 156 nM; `N#Cc1ccc(N2CC(CN3CCC4(CCCNC4)C3)C3(CC3)C2)c2nccnc12` (stereo not drawn) [Example 22, 8-[7-(2,9-Diazaspiro[4.5]decan-2-ylmethyl)-5-azaspiro[2.4]heptan-5-yl]quinoxaline-5-carbonitrile]: 201 nM; `C[C@H]1CN(c2ccc(C#N)c3ncccc23)C[C@@H]1CN1CCC2(CCNCC2)CC1` [Example 23, 5-[(3S,4R)-3-(3,9-diazaspiro[5.5]undecan-3-ylmethyl)-4-methyl-pyrrolidin-1-yl]quinoline-8-carbonitrile]: 251 nM. `N#Cc1ccc(N2CC(CN3CC4(CCCNC4)C3)C3(CC3)C2)c2nccnc12` (stereo not drawn) [Example 24, 8-[7-(2,8-Diazaspiro[3.5]nonan-2-ylmethyl)-5-azaspiro[2.4]heptan-5-yl]quinoxaline-5-carbonitrile] showed an IC50 of 298 nM. The IC50 values of the last two molecules are within 1.5-fold of each other. Next, `N#Cc1ccc(N2CC(CN3C4CCC3CC(N)C4)C3(CC3)C2)c2nccnc12` (stereo not drawn) [Example 25, 8-[7-[(3-Amino-8-azabicyclo[3.2.1]octan-8-yl)methyl]-5-azaspiro[2.4]heptan-5-yl]quinoxaline-5-carbonitrile]: 311 nM; `N#Cc1ccc(N2C[C@H](CN3CCC(N)CC3)[C@@H](C(F)(F)F)C2)c2nccnc12` [Example 26, 8-[(3S,4R)-3-[(4-Amino-1-piperidyl)methyl]-4-(trifluoromethyl)pyrrolidin-1-yl]quinoxaline-5-carbonitrile]: 55 nM; `C[C@H]1CN(c2ccc(C#N)c3nccnc23)C[C@@H]1CN1CCC2(CCNC2)C1` (stereo partly drawn) [Example 30, 8-[(3S,4R)-3-(2,7-diazaspiro[4.4]nonan-2-ylmethyl)-4-methyl-pyrrolidin-1-yl]quinoxaline-5-carbonitrile]: 382 nM. Turning to `FC(F)(F)c1ccc(N2CC(CN3CCC4(CCNCC4)CC3)C3(CC3)C2)c2nccnc12` (stereo not drawn) [Example 31, 3-[[5-[8-(Trifluoromethyl)quinoxalin-5-yl]-5-azaspiro[2.4]heptan-7-yl]methyl]-3,9-diazaspiro[5.5]undecane], it took 385 nM to reach half-maximal inhibition (IC50). For `N#Cc1ccc(N2CC(CN3CCC4(CCNCC4)C3)C3(CC3)C2)c2nccnc12` (stereo not drawn) [Example 32, 8-[7-(2,8-Diazaspiro[4.5]decan-2-ylmethyl)-5-azaspiro[2.4]heptan-5-yl]quinoxaline-5-carbonitrile], the concentration for half-maximal inhibition (IC50) was 402 nM. The result for `C[C@H]1CN(c2ccc(C#N)c3ncccc23)C[C@@H]1CN1CCC2(CCNC2)C1` (stereo partly drawn) [Example 35, 5-[(3S,4R)-3-(2,7-diazaspiro[4.4]nonan-2-ylmethyl)-4-methyl-pyrrolidin-1-yl]quinoline-8-carbonitrile] reads 468 nM; that for `N#Cc1ccc(N2CCC(CN3CCC4(CCNCC4)CC3)C2)c2nccnc12` (stereo not drawn) [Example 37, 8-[3-(3,9-Diazaspiro[5.5]undecan-3-ylmethyl)pyrrolidin-1-yl]quinoxaline-5-carbonitrile], 651 nM; that for `N#Cc1ccc(N2CC(CNC3CCCNCC3)C3(CC3)C2)c2nccnc12` (stereo not drawn) [Example 39, 8-[7-[(Azepan-4-ylamino)methyl]-5-azaspiro[2.4]heptan-5-yl]quinoxaline-5-carbonitrile], 709 nM.

As for `C[C@@H]1CN(c2ccc(C(F)(F)F)c3nccnc23)C[C@H]1CNC1CCCNCC1` (stereo partly drawn) [Example 40], it took 746 nM to reach half-maximal inhibition (IC50). For `FC(F)(F)c1ccc(N2CC(CN3C[C@H]4CNC[C@H]4C3)C3(CC3)C2)c2nccnc12` (stereo partly drawn) [Example 41, 5-[7-[[(3aR,6aS)-2,3,3a,4,6,6a-hexahydro-H-pyrrolo[3,4-c]pyrrol-5-yl]methyl]-5-azaspiro[2.4]heptan-5-yl]-8-(trifluoromethyl)quinoxaline], the half-maximal inhibitory concentration (IC50) is 821 nM.

Take `N#Cc1ccc(N2CC(CN3CC4(CC(N)C4)C3)C3(CC3)C2)c2nccnc12` (stereo not drawn) [Example 42, 8-[7-[(6-Amino-2-azaspiro[3.3]heptan-2-yl)methyl]-5-azaspiro[2.4]heptan-5-yl]quinoxaline-5-carbonitrile]: the midpoint of inhibition, the IC50, lay at 867 nM. Next, `N#Cc1ccc(N2CC(CN3CCC4(CCNC4)C3)C3(CC3)C2)c2cccnc12` (stereo not drawn) [Example 43, 5-[7-(2,7-Diazaspiro[4.4]nonan-2-ylmethyl)-5-azaspiro[2.4]heptan-5-yl]quinoline-8-carbonitrile]: 899 nM. Regarding `N#Cc1ccc(N2C[C@H](CN3CCC4(CCCNC4)CC3)[C@@H](C(F)(F)F)C2)c2nccnc12` [Example 45, 8-[(3S,4R)-3-(2,9-diazaspiro[5.5]undecan-9-ylmethyl)-4-(trifluoromethyl)pyrrolidin-1-yl]quinoxaline-5-carbonitrile], half-maximal inhibition (IC50) required 49 nM. As to `N#Cc1ccc(N2C[C@H](CN3CCC4(CCNCC4)C3)[C@@H](C(F)(F)F)C2)c2nccnc12` [Example 46, 8-[(3S,4R)-3-(2,8-diazaspiro[4.5]decan-2-ylmethyl)-4-(trifluoromethyl)pyrrolidin-1-yl]quinoxaline-5-carbonitrile], it took 93 nM to reach half-maximal inhibition (IC50). The result for `N#Cc1ccc(N2C[C@H](CN3CC4(CC(N)C4)C3)[C@@H](C(F)(F)F)C2)c2nccnc12` [Example 47, 8-[(3S,4R)-3-[(6-amino-2-azaspiro[3.3]heptan-2-yl)methyl]-4-(trifluoromethyl)pyrrolidin-1-yl]quinoxaline-5-carbonitrile] reads 88 nM.

The molecule `N#Cc1ccc(N2C[C@H](CN3CC4(CCNCC4)C3)[C@@H](C(F)(F)F)C2)c2nccnc12` [Example 48, 8-[(3S,4R)-3-(2,7-diazaspiro[3.5]nonan-2-ylmethyl)-4-(trifluoromethyl)pyrrolidin-1-yl]quinoxaline-5-carbonitrile] gave an IC50 of 51 nM.

In general, IC50 refers to the concentration that gives 50% inhibition. A high value points to lower potency.

The record behind these values is patent US20210253575A1, “PYRROLIDINE AMINE COMPOUNDS FOR THE TREATMENT OF AUTOIMMUNE DISEASE” (Hoffmann-La Roche Inc., priority 2018, published 2021).
